Test results reported in article PMC6688997 (Nature Communications, 2019).
“And” between values parts separate entries of the source, which are not always exact repeats. Equal entries are not always repeated. Where two headings read alike, the source gives them in different places.

Key:
[1] = test system: Ba/F3-CD74-ROS1 cells (WT); experiment: CellTiter-Glo cell viability assay; format: cell-based, murine; conditions: Mus musculus
[2] = test system: Ba/F3-CD74-ROS1 L1951R cells; experiment: CellTiter-Glo cell viability assay; format: cell-based, murine; conditions: Mus musculus
[3] = test system: Ba/F3-CD74-ROS1 L2026M cells; experiment: CellTiter-Glo cell viability assay; format: cell-based, murine; conditions: Mus musculus
[4] = test system: Ba/F3-CD74-ROS1 G2032R cells; experiment: CellTiter-Glo cell viability assay; format: cell-based, murine; conditions: Mus musculus
[5] = test system: Ba/F3-CD74-ROS1 D2033N cells; experiment: CellTiter-Glo cell viability assay; format: cell-based, murine; conditions: Mus musculus
[6] = test system: parental Ba/F3 cells (with IL-3); experiment: CellTiter-Glo cell viability assay; format: cell-based, murine; conditions: Mus musculus
[7] = test system: Ba/F3-TPM3-NTRK1 cells (WT); experiment: CellTiter-Glo cell viability assay; format: cell-based, murine; conditions: Mus musculus, 72 h
[8] = test system: SLC34A2-ROS1-G2032R overexpressing HCC78xe3 cells; experiment: Cell viability in 3D culture, CellTiter-Glo; format: cell-based; conditions: 72 h
[9] = test system: phospho-ROS1 in JFCR-165 cells; experiment: Immunoblot of ROS1 autophosphorylation; format: cell-based, human; conditions: 6 h
Protocol: (§1) Lysates were prepared using 1x SDS lysis buffer (1% SDS and 10% glycerol in 100 mM Tris–HCl [pH 7.5])[27]. […] All the primary antibody was used 1:1000 dilution for immunoblot analysis.

[10] = test system: phospho-ROS1 in JFCR-168 cells; experiment: Immunoblot of ROS1 autophosphorylation; format: cell-based, human; conditions: 6 h
Protocol: as §1

[11] = test system: phospho-ROS1 in MGH193-1B cells; experiment: Immunoblot of ROS1 autophosphorylation; format: cell-based, human; conditions: 6 h
Protocol: as §1

[12] = test system: Ba/F3-CD74-ROS1-WT xenograft; format: in vivo, mouse; conditions: for Tumor volume (average / SE): ROS1-WT xenograft, 100 mg/kg po
[13] = test system: HCC78xe3-SLC34A2-ROS1-WT xenograft; format: in vivo, mouse; parameters: Tumor volume LWW/2: unit not given here
[14] = test system: HCC78xe3-SLC34A2-ROS1-G2032R xenograft; format: in vivo, mouse
[15] = Body weight of Ba/F3-CD74-ROS1-WT xenograft mice; format: in vivo, mouse; conditions: Crizotinib 100 mg/kg po; for Body Weight Change(%) (average / SD): N 6
[16] = test system: phospho-ROS1 in HCC78xe3-SLC34A2-ROS1-G2032R xenograft tumors; experiment: Immunoblot of xenograft tumors; format: in vivo, mouse; conditions: 3 days treatment
[17] = test system: ROS1-rearranged NSCLC patients; conditions: cited from earlier work
[18] = Crizotinib 100 mg/kg po; for Body Weight Change(%) (average / SD): N 6
[19] = Crizotinib 100mg/kg, day 0, single mouse, in mm³
[20] = Crizotinib 100mg/kg, day 3, single mouse, in mm³
[21] = Crizotinib 100mg/kg, day 6, single mouse, in mm³
[22] = Crizotinib 100mg/kg, day 9, single mouse, in mm³
[23] = Crizotinib 100mg/kg, day 14, single mouse, in mm³
[24] = Crizotinib 100mg/kg, day 17, single mouse, in mm³
[25] = Crizotinib 100mg/kg, day 25, single mouse, in mm³
[26] = Crizotinib 100mg/kg, day 28, single mouse, in mm³
[27] = Crizotinib 100mg/kg, day 35, single mouse, in mm³
[28] = Crizotinib 100mg/kg, day 38, single mouse, in mm³
[29] = Crizotinib 100mg/kg, day 43, single mouse, in mm³
[30] = Crizotinib 100mg/kg, day 48, single mouse, in mm³
[31] = Crizotinib 100mg/kg, day 52, single mouse, in mm³
[32] = Crizotinib 100mg/kg, day 55, single mouse, in mm³

C[C@@H](Oc1cc(-c2cnn(C3CCNCC3)c2)cnc1N)c1c(Cl)ccc(F)c1Cl [crizotinib, reference compound]
IC50 ([1]; 72 h): […] | GI50 ([1]; source data sheet): […] | IC50 ([2]; 72 h): […] | GI50 ([2]; source data sheet): […] | GI50 [3]: […] | IC50 ([3]; 72 h): […] | IC50 ([4]; 72 h): […] | GI50 ([4]; source data sheet): […] | GI50 [5]: […] | IC50 ([6]; BaF3, 72 h): 812 nM | GI50 ([6]; BaF3, source data sheet): 798 nM | IC50 [7]: 21.4 nM | Cell growth inhibition [8]: much higher than those to WT cells | Inhibition of autophosphorylation of ROS1 [9]: potently inhibited | Inhibition of autophosphorylation of ROS1 [10]: potently inhibited | Inhibition of autophosphorylation of ROS1 [11]: potently inhibited | Tumor shrinkage ([12]; 100 mg/kg once daily oral, 4 days): induced tumor shrinkage | Tumor volume (average / SE) ([12]; day 0, N 6): 289 mm3 | Tumor volume (average / SE) ([12]; day 2, N 6): 151 mm3 | Tumor volume (average / SE) ([12]; day 4, N 6): 44 mm3 | Tumor volume LWW/2 [13, 19]: 172.7 and 167.7 | Tumor volume LWW/2 [13, 20]: 103.2 and 100.2 | Tumor volume LWW/2 [13, 21]: 67.8 and 77.3 | Tumor volume LWW/2 [13, 22]: 39.9 | Tumor volume LWW/2 [13, 23]: 13.2 | Tumor volume LWW/2 [13, 24]: 18.9 and 19.3 | Tumor volume LWW/2 [13, 25]: 5.2 | Tumor volume LWW/2 [13, 26]: 6.5 | Tumor volume LWW/2 [13, 27]: 8.7 | Tumor volume LWW/2 [13, 28]: 5.4 | Tumor volume LWW/2 [13, 29]: 4.9 | Tumor volume LWW/2 [13, 30]: 7.2 | Tumor volume LWW/2 [13, 31]: 15.8 | Tumor volume LWW/2 [13, 32]: 16.3 | Tumor volume LWW/2 ([13]; HCC78_Xe3_WT xenograft, BALB/c-nu mice, Crizotinib 50mg/kg, day 25, individual mice No. 7-12): 44.9 and 36.7 and 19.6 | Tumor volume LWW/2 ([13]; HCC78_Xe3_WT xenograft, BALB/c-nu mice, Crizotinib 50mg/kg, day 43, individual mice No. 7-12): 75.9 and 129.8 and 100.2 | Tumor growth inhibition ([14]; 50 and 100 mg/kg once daily oral): highly resistant to crizotinib | Tumor volume LWW/2 [14, 19]: 154.5 | Tumor volume LWW/2 [14, 20]: 162.2 and 132.5 | Tumor volume LWW/2 [14, 21]: 164.7 and 110.8 | Tumor volume LWW/2 [14, 22]: 136.2 and 132.2 | Tumor volume LWW/2 [14, 23]: 155.8 and 119.8 | Tumor volume LWW/2 [14, 24]: 174.0 and 154.2 | Tumor volume LWW/2 ([14]; Crizotinib 100mg/kg, day 21, single mouse, in mm³): 274.9 and 242.5 | Tumor volume LWW/2 [14, 25]: 238.7 and 300.2 | Tumor volume LWW/2 [14, 26]: 247.6 and 347.9 | Tumor volume LWW/2 ([14]; Crizotinib 100mg/kg, day 31, single mouse, in mm³): 309.9 and 336.1 | Tumor volume LWW/2 [14, 27]: 418.2 and 509.9 | Tumor volume LWW/2 [14, 28]: 526.9 and 595.5 | Tumor volume LWW/2 [14, 29]: 740.1 and 596.0 | Tumor volume LWW/2 [14, 30]: 745.2 and 699.2 | Tumor volume LWW/2 [14, 31]: 846.3 and 852.5 | Tumor volume LWW/2 [14, 32]: 921.5 and 834.7 | Tumor volume LWW/2 ([14]; HCC78_Xe3_G2032R xenograft, BALB/c-nu mice, Crizotinib 50mg/kg, day 6, individual mice No. 7-12): 127.8 and 126.6 | Tumor volume LWW/2 ([14]; HCC78_Xe3_G2032R xenograft, BALB/c-nu mice, Crizotinib 50mg/kg, day 17, individual mice No. 7-12): 278.8 and 148.6 and 98.2 | Survival ([14]; Kaplan–Meier, 50 and 100 mg/kg): did not show any superiority to the control group | Body Weight Change(%) (average / SD) ([15]; day 0, average): 0.0% | Body Weight Change(%) (individual) ([15]; day 0, individual animals): 0% | Body Weight Change(%) (average / SD) ([15]; day 1, average): -2.0% | Body Weight Change(%) (individual) ([15]; day 1, individual animals): -1% and -1.4% and -4.2% and -2.7% and -0.5% and -2.3% | Body Weight Change(%) (average / SD) ([15]; day 2, average): -1.9% | Body Weight Change(%) (individual) ([15]; day 2, individual animals): -1.9% and -0.5% and -3.3% and -1.8% | Body Weight Change(%) (average / SD) ([15]; day 3, average): -1.7% | Body Weight Change(%) (individual) ([15]; day 3, individual animals): -2.4% and -1.4% and -4.2% and 2.3% and -2.8% | Body Weight Change(%) (average / SD) ([15]; day 4, average): -4.4% | Body Weight Change(%) (individual) ([15]; day 4, individual animals): -3.9% and -3.8% and -6.5% and -2.3% and -5.3% and -4.6% | Inhibition of phospho-ROS1 in tumors [16]: in SLC34A2-ROS1-WT-expressing HCC78xe3 cells only | Median progression-free survival [17]: 19.2 months | Overall response rate [17]: 72% | Body Weight Change(%) (average / SD) ([18]; day 0, average): 0.0% | Body Weight Change(%) (individual) ([18]; day 0, individual animals): 0% | Body Weight Change(%) (average / SD) ([18]; day 1, average): -1.6% | Body Weight Change(%) (average / SD) ([18]; day 2, average): -0.4% | Body Weight Change(%) (average / SD) ([18]; day 3, average): -0.3% | Body Weight Change(%) (average / SD) ([18]; day 4, average): 0.5%
